Reference: ChEMBL document CHEMBL4184101, “Hybrid peptide-small molecule oxytocin analogs are potent and selective agonists of the oxytocin receptor” (Bioorg Med Chem Lett, 2018)
pEC50: −log10 of the molar value. *1 amine or outer side, *2 acyl side, *3 side chain or, on linkers, in order; H or OH if unused. Where a SMILES comes first, the peptide text is derived from it. Bridges are numbered along the chain shown (N, C = ends). [ ]: non-standard residue; d: D form. The star is where a group is joined. X3 = c1ccc(OC[C@@H]2CCCN2*)cc1; X5 = c1ccc(NC[C@@H]2CCCN2*)cc1; X8 = c1ccc(CC[C@@H]2CCCN2*)cc1; Cysteamide = C(CS[*:3])N[*:1]; X1 = c1ccc([C@@H]2CCCN2*)nc1; X6 = Cc1nnc([C@@H]2CCCN2*)o1; X9 = C1CCN(C2CCN(*)CC2)C1; Pyrrolidide = C1CCN(*)C1; X4 = COC[C@@H]1CCCN1*; X10 = CN1CCCN(*)CC1; X2 = C[C@H]1CCCN1*; X7 = CC(C)CCN(C)*; Mpa = O=C(O)CCS

Experiments:
[1] = Stability in human liver microsomes by LC/MS/MS analysis; format: ADME, microsome; conditions: read-out: Stability
[2] = molecular target: T1, Oxytocin receptor (Homo sapiens, UniProt P30559); test: Agonist activity at human OTR expressed in CHO cells assessed as increase in calcium flux after 60 to 120 mins by fluo-4 dye based FLIPR assay; format: functional, cell-based
T1 sequence (P30559 whole entry): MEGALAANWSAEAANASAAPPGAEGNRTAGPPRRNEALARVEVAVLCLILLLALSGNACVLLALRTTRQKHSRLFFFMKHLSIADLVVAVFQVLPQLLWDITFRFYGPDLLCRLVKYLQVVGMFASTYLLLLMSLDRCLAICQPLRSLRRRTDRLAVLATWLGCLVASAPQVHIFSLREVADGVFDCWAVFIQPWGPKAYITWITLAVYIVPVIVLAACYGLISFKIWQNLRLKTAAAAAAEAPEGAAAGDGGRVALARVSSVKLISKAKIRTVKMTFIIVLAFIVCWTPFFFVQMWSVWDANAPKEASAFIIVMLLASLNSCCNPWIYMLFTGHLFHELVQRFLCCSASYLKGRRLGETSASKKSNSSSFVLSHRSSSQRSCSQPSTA

[3] = molecular target: T2, Oxytocin receptor (Homo sapiens) (UniProt P30559); test: Agonist activity at human OTR expressed in CHO cells assessed as increase in calcium flux after 60 to 120 mins by fluo-4 dye based FLIPR assay relative to control; format: functional, cell-based
T2 sequence (whole entry): T1 sequence (P30559 whole entry)

[4] = molecular target: Vasopressin V1a receptor (Homo sapiens, UniProt P37288); test: Agonist activity at vasopressin 1a receptor (unknown origin); format: functional
Chain of Vasopressin V1a receptor (P37288 whole entry): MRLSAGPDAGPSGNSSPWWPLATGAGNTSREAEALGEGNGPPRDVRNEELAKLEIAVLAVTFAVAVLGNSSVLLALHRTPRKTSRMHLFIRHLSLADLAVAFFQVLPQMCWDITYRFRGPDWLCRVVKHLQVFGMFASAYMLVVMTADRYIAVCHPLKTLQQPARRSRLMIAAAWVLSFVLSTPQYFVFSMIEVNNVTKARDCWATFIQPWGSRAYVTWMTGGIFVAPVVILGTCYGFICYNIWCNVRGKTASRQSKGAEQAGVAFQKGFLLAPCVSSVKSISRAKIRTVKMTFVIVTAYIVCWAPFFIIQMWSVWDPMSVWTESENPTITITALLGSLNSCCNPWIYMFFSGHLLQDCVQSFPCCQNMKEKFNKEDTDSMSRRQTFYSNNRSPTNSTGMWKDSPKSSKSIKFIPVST

Structure (SMILES) | CLint scaled [1] | pEC50 [2] | Efficacy [3] | pEC50 [4]
CC[C@H](C)[C@@H]1NC(=O)[C@H](Cc2ccc(O)cc2)NC(=O)CCSSC[C@@H](C(=O)N2CCC[C@H]2C(=O)N[C@@H](CC(C)C)C(N)=O)NC(=O)[C@H](CC(N)=O)NC(=O)[C@H](CCC(N)=O)NC1=O | < 8 mL/min/kg | 8.74 | 82% | < 6.00
CC[C@H](C)[C@@H]1NC(=O)[C@H](Cc2ccc(O)cc2)NC(=O)CCSSC[C@@H](C(=O)N2CCC[C@H]2COc2ccccc2)NC(=O)[C@H](CC(N)=O)NC(=O)[C@H](CCC(N)=O)NC1=O ([Mpa]YIQNC-X3; disulfide 1-6) | 123 mL/min/kg | 6.71 | 52% | < 6.00
CC[C@H](C)[C@@H]1NC(=O)[C@H](Cc2ccc(O)cc2)NC(=O)CCSSC[C@@H](C(=O)N2CCC[C@H]2C(=O)N(C)CCC(C)C)NC(=O)[C@H](CC(N)=O)NC(=O)[C@H](CCC(N)=O)NC1=O ([Mpa]YIQNCP-X7; disulfide 1-6) | 25.5 mL/min/kg | 8.74 | 94% | < 6.00
CC[C@H](C)[C@@H]1NC(=O)[C@H](Cc2ccc(O)cc2)NC(=O)CCSSC[C@@H](C(=O)N2CCC[C@H]2CCc2ccccc2)NC(=O)[C@H](CC(N)=O)NC(=O)[C@H](CCC(N)=O)NC1=O ([Mpa]YIQNC-X8; disulfide 1-6) | 153 mL/min/kg | 8.28 | 59% | < 6.00
CC[C@H](C)[C@@H]1NC(=O)[C@H](Cc2ccc(O)cc2)NC(=O)CCSSC[C@@H](C(=O)N2CCC[C@H]2C(=O)N2CCCN(C)CC2)NC(=O)[C@H](CC(N)=O)NC(=O)[C@H](CCC(N)=O)NC1=O ([Mpa]YIQNCP-X10; disulfide 1-6) | – | 8.44 | 98% | < 6.00
CC[C@H](C)[C@@H]1NC(=O)[C@H](Cc2ccc(O)cc2)NC(=O)CCSSCCNC(=O)[C@H](CC(N)=O)NC(=O)[C@H](CCC(N)=O)NC1=O ([Mpa]YIQN-Cysteamide; disulfide 1-C) | < 8 mL/min/kg | 7.55 | 67% | < 6.00
CC[C@H](C)[C@@H]1NC(=O)[C@H](Cc2ccc(O)cc2)NC(=O)CCSSC[C@@H](C(=O)N2CCC[C@H]2C(=O)N[C@@H](CC(C)C)C(=O)NCC(N)=O)NC(=O)[C@H](CC(N)=O)NC(=O)[C@H](CCC(N)=O)NC1=O | < 8 mL/min/kg | – | 106% | –
CC[C@H](C)[C@@H]1NC(=O)[C@H](Cc2ccc(O)cc2)NC(=O)[C@@H](N)CSSC[C@@H](C(=O)N2CCC[C@H]2C(=O)N[C@@H](CC(C)C)C(=O)NCC(N)=O)NC(=O)[C@H](CC(N)=O)NC(=O)[C@H](CCC(N)=O)NC1=O [OXYTOCIN] | 30 mL/min/kg | – | 102% | –
CC[C@H](C)[C@@H]1NC(=O)[C@H](Cc2ccc(O)cc2)NC(=O)CCSSC[C@@H](C(=O)N2CCC[C@H]2C(=O)N2CCC(N3CCCC3)CC2)NC(=O)[C@H](CC(N)=O)NC(=O)[C@H](CCC(N)=O)NC1=O ([Mpa]YIQNCP-X9; disulfide 1-6) | – | 8.17 | 98% | < 6.00
CC[C@H](C)[C@@H]1NC(=O)[C@H](Cc2ccc(O)cc2)NC(=O)CCSSC[C@@H](C(=O)N2CCC[C@H]2c2ccccn2)NC(=O)[C@H](CC(N)=O)NC(=O)[C@H](CCC(N)=O)NC1=O ([Mpa]YIQNC-X1; disulfide 1-6) | < 8 mL/min/kg | 9.08 | 80% | < 6.00
CC[C@H](C)[C@@H]1NC(=O)[C@H](Cc2ccc(O)cc2)NC(=O)CCSSC[C@@H](C(=O)N2CCC[C@H]2CNc2ccccc2)NC(=O)[C@H](CC(N)=O)NC(=O)[C@H](CCC(N)=O)NC1=O ([Mpa]YIQNC-X5; disulfide 1-6) | 40 mL/min/kg | 9.11 | 76% | < 6.00

Second part, the molecule after the results:

CLint scaled [1] | pEC50 [2] | Efficacy [3] | pEC50 [4] | Structure (SMILES)
< 8 mL/min/kg | 9.29 | 97% | < 6.00 | CC[C@H](C)[C@@H]1NC(=O)[C@H](Cc2ccc(O)cc2)NC(=O)CCSSC[C@@H](C(=O)N2CCCC2)NC(=O)[C@H](CC(N)=O)NC(=O)[C@H](CCC(N)=O)NC1=O ([Mpa]YIQNC-Pyrrolidide; disulfide 1-6)
< 8 mL/min/kg | 8.27 | 90% | < 6.00 | CC[C@H](C)[C@@H]1NC(=O)[C@H](Cc2ccc(O)cc2)NC(=O)CCSSC[C@@H](C(N)=O)NC(=O)[C@H](CC(N)=O)NC(=O)[C@H](CCC(N)=O)NC1=O
< 8 mL/min/kg | 9.22 | 84% | < 6.00 | CC[C@H](C)[C@@H]1NC(=O)[C@H](Cc2ccc(O)cc2)NC(=O)CCSSC[C@@H](C(=O)N2CCC[C@@H]2C)NC(=O)[C@H](CC(N)=O)NC(=O)[C@H](CCC(N)=O)NC1=O ([Mpa]YIQNC-X2; disulfide 1-6)
< 8 mL/min/kg | 9.22 | 77% | < 6.00 | CC[C@H](C)[C@@H]1NC(=O)[C@H](Cc2ccc(O)cc2)NC(=O)CCSSC[C@@H](C(=O)N2CCC[C@H]2c2nnc(C)o2)NC(=O)[C@H](CC(N)=O)NC(=O)[C@H](CCC(N)=O)NC1=O ([Mpa]YIQNC-X6; disulfide 1-6)
< 8 mL/min/kg | 8.89 | 89% | < 6.00 | CC[C@H](C)[C@@H]1NC(=O)[C@H](Cc2ccc(O)cc2)NC(=O)CCSSC[C@@H](C(=O)N2CCC[C@H]2C(N)=O)NC(=O)[C@H](CC(N)=O)NC(=O)[C@H](CCC(N)=O)NC1=O
< 8 mL/min/kg | 9.36 | 91% | < 6.00 | CC[C@H](C)[C@@H]1NC(=O)[C@H](Cc2ccc(O)cc2)NC(=O)CCSSC[C@@H](C(=O)N2CCC[C@H]2COC)NC(=O)[C@H](CC(N)=O)NC(=O)[C@H](CCC(N)=O)NC1=O ([Mpa]YIQNC-X4; disulfide 1-6)
